Source: patent publication US20020091095A1, “Modulation of Fas and FasL expression” (priority 1999, published 2002)

How the values were obtained:
[1] = tested on: Fas; experiment: Fas expression at the cell surface by flow cytometry, MCF-7 cells; assay type: cell-based, human; conditions: MCF-7 breast cancer cells, 100 μg/ml sequence, 48 h, treated vs control cells
Protocol: (§1) Cancer cells and PBMCs were seeded in 6 well flat-bottom microplates and were maintained at 37° C. in a 5% CO2 atmosphere. Unless stated otherwise, 2×10^5 cells/ml were incubated for 48 h with 0 μg/ml (control) or 100 μg/ml ([…]) (treated) of the sequences.
(§2) Fas and FasL expression were measured by flow cytometry using anti-Fas FITC-conjugated monoclonal antibodies and anti-FasL PE-conjugated monoclonal antibodies in a FACScalibur Flow Cytometer (Becton Dickinson, San Jose, Calif., USA) using the CELLQuest program (Becton Dickinson).
(§3) Results are expressed as percentage (%) increase in the expression of Fas and of FasL measured on treated cells compared to control cells.
(§4) MCF-7 human breast cancer cells are a caspase-3 negative, estrogen-dependent human solid tumor model.

[2] = tested on: FasL; experiment: FasL expression at the cell surface by flow cytometry, OVCAR-3 cells; assay type: cell-based, human; conditions: OVCAR-3 ovarian cancer cells, 100 μg/ml sequence, 48 h, treated vs control cells
Protocol: as §1, §2, §3
(§5) OVCAR-3 ovarian cancer cells are a p53 mutated, p21/waf-1/Cip deleted, metastatic human solid tumor model.

[3] = tested on: FasL; experiment: FasL expression at the cell surface by flow cytometry, T-24 cells; assay type: cell-based, human; conditions: T-24 bladder cancer cells, 100 μg/ml sequence, 48 h, treated vs control cells
Protocol: as §1, §2, §3
(§6) T-24 bladder cancer cells are a p53 mutated human cell line T-24 cells (1.0×10^5 cells/ml) were incubated with the 6 base sequences shown in Table 4.

[4] = tested on: Fas; experiment: Fas expression at the cell surface by flow cytometry, LNCaP cells; assay type: cell-based, human; conditions: LNCaP prostate cancer cells, 100 μg/ml sequence, 48 h, treated vs control cells
Protocol: as §1, §2, §3
(§7) LNCaP prostate cancer cells are a TGF-beta 1 receptor negative, […], metastatic human solid tumor model.

[5] = tested on: FasL; experiment: FasL expression at the cell surface by flow cytometry, MCF-7 cells; assay type: cell-based, human; conditions: MCF-7 breast cancer cells, 100 μg/ml sequence, 48 h, treated vs control cells
Protocol: as §1, §2, §3, §4

[6] = tested on: FasL; experiment: FasL expression at the cell surface by flow cytometry, UMUC-3 cells; assay type: cell-based, human; conditions: UMUC-3 bladder cancer cells, 100 μg/ml sequence, 48 h, treated vs control cells
Protocol: as §1, §2, §3
(§8) UMUC-3 bladder cancer cells are a P-glycoprotein overexpressing human cell line.

[7] = tested on: FasL; experiment: FasL expression at the cell surface by flow cytometry, SK-OV-3 cells; assay type: cell-based, human; conditions: SK-OV-3 ovarian cancer cells, 100 μg/ml sequence, 48 h, treated vs control cells
Protocol: as §1, §2, §3
(§9) SK-OV-3 ovarian cancer cells are a p53 mutated, p21/waf-1/Cip deleted, p15^ink4B,p16^ink4 deleted metastatic human solid tumor model.

[8] = tested on: Fas; experiment: Fas expression at the cell surface by flow cytometry, SK-OV-3 cells; assay type: cell-based, human; conditions: SK-OV-3 ovarian cancer cells, 100 μg/ml sequence, 48 h, treated vs control cells
Protocol: as §1, §2, §3, §9

[9] = tested on: Fas; experiment: Fas expression at the cell surface by flow cytometry, T-24 cells; assay type: cell-based, human; conditions: T-24 bladder cancer cells, 100 μg/ml sequence, 48 h, treated vs control cells
Protocol: as §1, §2, §3, §6

[10] = tested on: FasL; experiment: FasL expression at the cell surface by flow cytometry, Jurkat cells; assay type: cell-based; conditions: Jurkat human leukemia T cells, 100 μg/ml sequence, 48 h, treated vs control cells
Protocol: as §1, §2, §3
(§10) Jurkat human leukemia T cells are an atypical multi-drug resistant human suspension tumor cell model.

[11] = tested on: FasL; experiment: FasL expression at the cell surface by flow cytometry, LNCaP cells; assay type: cell-based, human; conditions: LNCaP prostate cancer cells, 100 μg/ml sequence, 48 h, treated vs control cells
Protocol: as §1, §2, §3, §7

[12] = tested on: Fas; experiment: Fas expression at the cell surface by flow cytometry, UMUC-3 cells; assay type: cell-based, human; conditions: UMUC-3 bladder cancer cells, 100 μg/ml sequence, 48 h, treated vs control cells
Protocol: as §1, §2, §3, §8

[13] = tested on: Fas; experiment: Fas expression at the cell surface by flow cytometry, Jurkat cells; assay type: cell-based; conditions: Jurkat human leukemia T cells, 100 μg/ml sequence, 48 h, treated vs control cells
Protocol: as §1, §2, §3, §10

[14] = tested on: Fas; experiment: Fas expression at the cell surface by flow cytometry, OVCAR-3 cells; assay type: cell-based, human; conditions: OVCAR-3 ovarian cancer cells, 100 μg/ml sequence, 48 h, treated vs control cells
Protocol: as §1, §2, §3, §5

[15] = tested on: Fas; experiment: Fas expression at the cell surface by flow cytometry, PBMCs; assay type: cell-based, human; conditions: 100 μg/ml sequence, 48 h, treated vs control cells
Protocol: (§11) Peripheral blood mononuclear cells (hereinafter, “PBMCs”) were isolated from human blood by Ficoll-Hypaque (Amersham Pharmacia Biotech, Baie d'Urfée, Québec, Canada) density gradient centrifugation.
as §1, §2, §3

[16] = tested on: FasL; experiment: FasL expression at the cell surface by flow cytometry, PBMCs; assay type: cell-based, human; conditions: 100 μg/ml sequence, 48 h, treated vs control cells
Protocol: as §11, §1, §2, §3

Sequence	% INCREASE Fas [1]	% INCREASE FasL [2]	% INCREASE FasL [3]	% INCREASE Fas [4]	% INCREASE FasL [5]	% INCREASE FasL [6]	% INCREASE FasL [7]	% INCREASE Fas [8]	% INCREASE Fas [9]	% INCREASE FasL [10]	% INCREASE FasL [11]	% INCREASE Fas [12]	% INCREASE Fas [13]	% INCREASE Fas [14]	% INCREASE Fas [15]	% INCREASE FasL [16]
CCGTCC [SEQ ID NO:8]	200%	95%	459%	0%	322%	149%	32%	58%	282%	151%	311%	55%	107%	83%	1046%	1147%
AAGTAA [SEQ ID NO:7]	12%	−2%	−10%	0%	21%	−1%	−22%	−12%	16%	−21%	−16%	6%	−4%	16%	13%	−26%
GTGTGT [SEQ ID NO:2]	155%	69%	77%	34%	135%	154%	24%	60%	93%	43%	5%	72%	52%	77%	94%	99%
GGAAGG [SEQ ID NO:14]	62%	1%	14%	26%	84%	8%	−31%	−15%	46%	88%	−4%	1%	67%	15%	112%	162%
TTGTTT [SEQ ID NO:6]	143%	98%	152%	40%	159%	132%	24%	41%	116%	140%	73%	57%	126%	65%	338%	441%
GGCCGG [SEQ ID NO:15]	63%	−2%	18%	12%	78%	58%	−27%	0%	56%	41%	−4%	23%	75%	19%	6%	−29%
TGGTTG [SEQ ID NO:9]	255%	270%	397%	184%	481%	300%	53%	63%	180%	952%	241%	143%	362%	221%	1043%	1322%
TCGTTC [SEQ ID NO:12]	56%	224%	74%	111%	98%	112%	−3%	9%	105%	75%	171%	47%	121%	126%	597%	847%
TGTGTG [SEQ ID NO:1]	122%	70%	213%	29%	121%	112%	37%	49%	84%	93%	40%	72%	52%	64%	126%	260%
TTTGTT [SEQ ID NO:3]	361%	341%	549%	199%	528%	231%	103%	108%	279%	497%	344%	108%	258%	193%	1165%	1528%
